Experimental data as given in ChEMBL document CHEMBL5038667, “Discovery of an Amino Acid-Modified Near-Infrared Aza-BODIPY Photosensitizer as an Immune Initiator for Potent Photodynamic Therapy in Melanoma” (J Med Chem, 2022).
In brackets after ≈: the same amount, converted by molar mass. Activity calls are given as the source filed them. The calls are words filed in the database; no cut-off is given here.

Tests used:
[1] = Biodistribution in whole body of C57BL/6 mouse harboring B16-F10 cells at 2 mg/kg, iv measured after 12 hrs by flourescence imaging assay; type: ADME, organism-based; conditions: in vivo
[2] = Aqueous solubility in PBS; type: physicochemical; conditions: buffer
[3] = test system: A-375; assay: Dark toxicity against human A-375 cells assessed as reduction in cell viability incubated for 16 hrs by CCK-8 assay; type: functional, cell-based; conditions: A-375, 16 h
[4] = test system: HeLa; assay: Dark toxicity against human HeLa cells assessed as reduction in cell viability incubated for 16 hrs by CCK-8 assay; type: functional, cell-based
[5] = Phototoxicity against human HeLa cells assessed as reduction in cell viability incubated for 16 hrs followed by irradiated with 54 J/cm^2 of light dose and further incubated for 24 hrs by CCK-8 assay; type: toxicity, cell-based; conditions: light or radiation study
[6] = Drug localisation in mitochondria of mouse B16-F10 cells at 5 uM incubated for 16 hrs by Mito Tracker Green FM based confocal laser scanning microscopy analysis; type: ADME; conditions: b16-f10, 16 h
[7] = Drug localisation in mitochondria of human A-375 cells at 5 uM incubated for 16 hrs by Mito Tracker Green FM based confocal laser scanning microscopy analysis; type: ADME; conditions: a-375, 16 h
[8] = Drug localisation in endoplasmic reticulum of mouse B16-F10 cells at 5 uM incubated for 16 hrs by ER Tracker Green based confocal laser scanning microscopy analysis; type: ADME, subcellular; conditions: b16-f10, 16 h
[9] = test system: B16-F10; assay: Induction of ROS generation in mouse B16-F10 cells assessed as cells with high intracellular ROS levels at 10 nM incubated for 16 hrs followed by irradiated with 54 J/cm^2 of light dose by H2DCFDA fluorescent probe based flow cytometry method (reference value: 1.96 %); type: functional
[10] = test system: B16-F10; assay: Induction of ROS generation in mouse B16-F10 cells assessed as cells with high intracellular ROS levels at 20 nM incubated for 16 hrs followed by irradiated with 54 J/cm^2 of light dose by H2DCFDA fluorescent probe based flow cytometry method (reference value: 1.96 %); type: functional
[11] = test system: B16-F10; assay: Induction of ROS generation in mouse B16-F10 cells assessed as cells with high intracellular ROS levels at 100 nM incubated for 16 hrs followed by irradiated with 54 J/cm^2 of light dose by H2DCFDA fluorescent probe based flow cytometry method (reference value: 1.96 %); type: functional
[12] = test system: A-375; assay: Induction of ROS generation in human A-375 cells assessed as cells with high intracellular ROS levels at 10 nM incubated for 16 hrs followed by irradiated with 54 J/cm2 light dose by H2DCFDA fluorescent probe based flow cytometry method (reference value: 2.09 %); type: functional
[13] = test system: B16-F10; assay: Induction of apoptosis in mouse B16-F10 cells assessed as viable cells at 10 nM incubated for 16 hrs followed by irradiated with 54 J/cm^2 of light dose by Annexin V-FITC/PI based flow cytometric analysis (reference value: 87.45 %); type: functional; conditions: B16-F10, light or radiation study, read-out: Activity
[14] = test system: B16-F10; assay: Induction of apoptosis in mouse B16-F10 cells assessed as early apoptotic cells at 10 nM incubated for 16 hrs followed by irradiated with 54 J/cm^2 light dose by Annexin V-FITC/PI based flow cytometric analysis (reference value: 6.48 %); type: functional
[15] = test system: B16-F10; assay: Induction of apoptosis in mouse B16-F10 cells assessed as late apoptotic cells at 50 nM incubated for 16 hrs followed by irradiated with 54 J/cm^2 light dose by Annexin V-FITC/PI based flow cytometric analysis (reference value: 2.32 %); type: functional
[16] = test system: B16-F10; assay: Induction of apoptosis in mouse B16-F10 cells assessed as early apoptotic cells at 50 nM incubated for 16 hrs followed by irradiated with 54 J/cm^2 light dose by Annexin V-FITC/PI based flow cytometric analysis (reference value: 6.48 %); type: functional
[17] = test system: B16-F10; assay: Induction of apoptosis in mouse B16-F10 cells assessed as early apoptotic cells at 250 nM incubated for 16 hrs followed by irradiated with 54 J/cm^2 light dose by Annexin V-FITC/PI based flow cytometric analysis (reference value: 6.48 %); type: functional
[18] = test system: B16-F10; assay: Induction of apoptosis in mouse B16-F10 cells assessed as late apoptotic cells at 10 nM incubated for 16 hrs followed by irradiated with 54 J/cm^2 light dose by Annexin V-FITC/PI based flow cytometric analysis (reference value: 2.32 %); type: functional
[19] = test system: B16-F10; assay: Induction of apoptosis in mouse B16-F10 cells assessed as late apoptotic cells at 250 nM incubated for 16 hrs followed by irradiated with 54 J/cm^2 light dose by Annexin V-FITC/PI based flow cytometric analysis (reference value: 2.32 %); type: functional
[20] = test system: B16-F10; assay: Induction of apoptosis in mouse B16-F10 cells assessed as necrotic cells at 10 nM incubated for 16 hrs followed by irradiated with 54 J/cm^2 light dose by Annexin V-FITC/PI based flow cytometric analysis (reference value: 3.75 %); type: functional
[21] = test system: A-375; assay: Induction of apoptosis in human A-375 cells assessed as total apoptotic cells at 10 nM incubated for 16 hrs followed by irradiated with 54 J/cm^2 light dose by Annexin V-FITC/PI based flow cytometric analysis (reference value: 4.79 %); type: functional
[22] = test system: A-375; assay: Induction of apoptosis in human A-375 cells assessed as total apoptotic cells at 50 nM incubated for 16 hrs followed by irradiated with 54 J/cm^2 light dose by Annexin V-FITC/PI based flow cytometric analysis (reference value: 4.79 %); type: functional
[23] = test system: B16-F10; assay: Antitumor immunity against mouse B16-F10 cells assessed as surface translocation of CRT at 250 nM incubated for 16 hrs followed by irradiated with 54 J/cm^2 light dose and further incubated for 6 hrs by Alexa Fluor 488/Hoechst 33342 staining based confocal laser scanning microscopy; type: functional, cell-based
[24] = Biodistribution in heart of C57BL/6 mouse harboring mouse B16-F10 cells at 2 mg/kg, iv measured after 12 hrs by flourescence imaging assay; type: ADME, organism-based; conditions: in vivo
[25] = Biodistribution in liver of C57BL/6 mouse harboring mouse B16-F10 cells at 2 mg/kg, iv measured after 12 hrs by flourescence imaging assay; type: ADME, organism-based; conditions: in vivo
[26] = Biodistribution in lungs of C57BL/6 mouse harboring mouse B16-F10 cells at 2 mg/kg, iv measured after 12 hrs by flourescence imaging assay; type: ADME, organism-based, Lung; conditions: in vivo
[27] = Biodistribution in spleen of C57BL/6 mouse harboring mouse B16-F10 cells at 2 mg/kg, iv measured after 12 hrs by flourescence imaging assay; type: ADME, organism-based; conditions: in vivo
[28] = Biodistribution in kidneys of C57BL/6 mouse harboring mouse B16-F10 cells at 2 mg/kg, iv measured after 12 hrs by flourescence imaging assay; type: ADME, organism-based, Kidney; conditions: in vivo
[29] = Toxicity in C57BL/6 mouse harboring mouse B16-F10 cells assessed as change in body weight at 2 mg/kg, iv irradiated with 60 J/cm^2 laser light measured upto 14 days; type: organism-based; conditions: in vivo, 336 h, time <=14 day
[30] = test system: B16-F10; assay: Photodynamic therapy in mouse B16-F10 cells implanted in C57BL/6 mouse model assessed as increase in infiltration of CD4+ T cells by APC/FITC/PE staining based flow cytometric analysis (reference value: 4.85 %); type: functional
[31] = test system: B16-F10; assay: Photodynamic therapy in mouse B16-F10 cells implanted in C57BL/6 mouse model assessed as increase infiltration of CD8+ T cells measured after 3 days by immunofluorescence staining based analysis; type: functional, cell-based; conditions: time 3.0 day

## COc1ccc(C2=[N+]3C(=Nc4c(-c5ccccc5)c5c(n4[B-]3(F)F)-c3ccc(OCC(=O)N[C@@H](CC(=O)O)C(=O)O)cc3CC5)C(c3ccccc3)=C2I)cc1
[1]
  Drug uptake: Active
[2]
  solubility: 165 µM (≈ 144 µg/mL)
[3]
  IC50: > 250 µM
[4]
  IC50: > 250 µM
[5]
  IC50: 0.021 µM
[6]
  Drug uptake: Active
[7]
  Drug uptake: Active
[8]
  Drug uptake: Active
[9]
  Activity: 2.67%
[10]
  Activity: 6.77%
[11]
  Activity: 70.29%
[12]
  Activity: 2.48%
[13]
  viability at 0.01 µM: 88.9%
[14]
  Activity: 2.93%
[15]
  Activity: 13.7%
[16]
  Activity: 40.92%
[17]
  Activity: 75.41%
[18]
  Activity: 7.3%
[19]
  Activity: 20.54%
[20]
  Activity: 0.88%
[21]
  Activity: 6.68%
[22]
  Activity: 66.46%
[23]
  Activity: inactive
[24]
  Drug uptake: Active
[25]
  Drug uptake: Active
[26]
  Drug uptake: Active
[27]
  Drug uptake: Active
[28]
  Drug uptake: Active
[29]
  Activity: Non-Toxic
[30]
  Activity: 8.11%
[31]
  Activity: Active
